Where a SMILES comes first, the peptide text is derived from it. [ ]: non-standard residue; d: D form. Aoe = N[C@@H](CCCCCC(=O)[C@@H]1CO1)C(=O)O
Assay: Treatment of diabetes mellitus with other HDAC regulators instead of givinostat (Example 7)
Type: in vivo
Conditions: used instead of givinostat; model and dose not stated
In the case of `O=C(O)CCCc1ccccc1` [4-phenylbutyric acid], the diabetes mellitus outcome was “similarly cured”. With `O=C(CCCCCCSc1ccc2ccccc2c1)NO` [(N-hydroxy-7-2-naphthylthio)heptanomide] the diabetes mellitus outcome was “similarly cured”. For `CCCC(=O)OCOC(=O)C(C)(C)C` [(pivaloyloxy)methyl butyrate], the diabetes mellitus outcome was “similarly cured”. For `CN(C)CCCNC(=O)/C(=C/CCCCC(=O)NO)COc1cccc2ccccc12` [CG200745], the diabetes mellitus outcome was “similarly cured”. With `O=C(CCC1=CCCN(CCCc2ccccc2)C1=O)NO` [KBH-A42] the diabetes mellitus outcome was “similarly cured”. In the case of `CN(C)c1ccc(C(=O)NCc2ccc(/C=C/C(=O)NO)cc2)cc1` [SK-7041], the diabetes mellitus outcome was “similarly cured”. With `O=C(CCCCCCC(=O)Nc1ccc([C@H]2O[C@@H](CSc3nc(-c4ccccc4)c(-c4ccccc4)o3)C[C@@H](c3ccc(CO)cc3)O2)cc1)NO` [Tubacin] the diabetes mellitus outcome was “similarly cured”. With `CN(C)Cc1c(C(=O)NCCOc2ccc(C(=O)NO)cc2)oc2ccccc12` [abexinostat] the diabetes mellitus outcome was “similarly cured”. In the case of `O=C(CCCCCCCC(=O)NO)NO` [azelaoyl-bis-hydroxamic acid], the diabetes mellitus outcome was “similarly cured”. For `O=C(/C=C/c1cccc(S(=O)(=O)Nc2ccccc2)c1)NO` [belinostat], the diabetes mellitus outcome was “similarly cured”. In the case of `O=C(/C=C/c1ccc(CN(CCO)CCc2c[nH]c3ccccc23)cc1)NO` [dacinostat], the diabetes mellitus outcome was “similarly cured”. With `C=CCSSSCC=C` [diallyl trisulfide] the diabetes mellitus outcome was “similarly cured”. For `Nc1ccccc1NC(=O)c1ccc(CNC(=O)OCc2cccnc2)cc1` [entinostat], the diabetes mellitus outcome was “similarly cured”. With `O=C(C=Cc1cccc(C(=O)NO)c1)NO` [m-carboxycinnamic acid bis-hydroxamide] the diabetes mellitus outcome was “similarly cured”. With `Nc1ccccc1NC(=O)c1ccc(CNc2nccc(-c3cccnc3)n2)cc1` [mocetinostat] the diabetes mellitus outcome was “similarly cured”. For `O=C(NO)c1cnc(N2C[C@@H]3[C@H](C2)[C@H]3NCc2ccc3cc(F)ccc3n2)nc1` [nanatinostat], the diabetes mellitus outcome was “similarly cured”. With `CCCCc1nc2cc(/C=C/C(=O)NO)ccc2n1CCN(CC)CC` [pracinostat] the diabetes mellitus outcome was “similarly cured”. In the case of `Cn1cc(CNCC2CCN(c3ncc(C(=O)NO)cn3)CC2)c2ccccc21` [quisinostat], the diabetes mellitus outcome was “similarly cured”. In the case of `CN(C)Cc1ccc(S(=O)(=O)n2ccc(/C=C/C(=O)NO)c2)cc1` [resminostat], the diabetes mellitus outcome was “similarly cured”. With `O=C(CCCCCCNC(=O)c1cnc(N(c2ccccc2)c2ccccc2)nc1)NO` [rocilinostat] the diabetes mellitus outcome was “similarly cured”. In the case of `O=C(CCCCCN1C(=O)c2cccc3cccc(c23)C1=O)NO` [scriptaid], the diabetes mellitus outcome was “similarly cured”. For `CCCC(=O)[O-].[Na+]` [sodium butyrate], the diabetes mellitus outcome was “similarly cured”. For `CC(=O)Nc1ccc(C(=O)Nc2ccccc2N)cc1` [tacedinaline], the diabetes mellitus outcome was “similarly cured”. In the case of `O=C1N[C@@H](Cc2ccccc2)C(=O)N2CCC[C@@H]2C(=O)N[C@@H](CCCCCC(=O)[C@@H]2CO2)C(=O)N[C@H]1Cc1ccccc1` [trapoxin] (cyclo(FF[dP][Aoe])), the diabetes mellitus outcome was “similarly cured”. With `CC(/C=C/C(=O)NO)=C\[C@@H](C)C(=O)c1ccc(N(C)C)cc1` [trichostatin A] the diabetes mellitus outcome was “similarly cured”. In the case of `O=C(CCCCCCC(=O)Nc1ccccc1)NO` [vorinostat, suberoylanilide hydroxamic acid], the diabetes mellitus outcome was “similarly cured”.

From patent EP4424327A1, “METHOD OR AGENT WITH HDAC REGULATOR, FOR TREATMENT OF DIABETES AND COMPLICATIONS” (Biozipcode, Inc., priority 2021, dated 2023)
